{
  "source": "patent US20250009748A1",
  "about": "(NAVIRE PHARMA, INC., priority 2021, published 2025)",
  "key": {"[1]": {"test": "LC-MS/MS plasma concentration of formula (10b) and Compound A at end of efficacy study (Example 1)", "assay_type": "in vivo, NOD/SCID mice", "conditions": "for concentration at 2 h / concentration at 8 h: NOD/SCID, mouse, plasma, oral; for concentration at 2 h: Compound A Plasma concentration", "source_text": "Blood collection for pharmacokinetic analysis. Blood from live animals for pharmacokinetic (PK) analyses was obtained via the retro-orbital sinus. The mouse was grasped firmly behind the ears and rotated slightly to one side so that a disposable, sterile microcapillary tube could be inserted behind the eyeball and gently rotated to break the sinus cavity. Blood flowed through the capillary tube, directly into a K2 EDTA tube (Jiangsu KangJian Medical Apparatus Corporation #044022) to a volume of 100 μL. Blood in the tube was inverted several times to distribute the EDTA evenly. To separate plasma, tubes were centrifuged in a bench top centrifuge (Eppendorf, Model 5424R) for 5 minutes at 8000 rpm without braking. The supernatant (plasma) was carefully transferred to a microcentrifuge tube and placed onto dry ice prior to storage at −80° C.\nFor plasma sample analysis, 20 μL of each sample was precipitated with 200 μL of acetonitrile containing Glipizide (100 ng/mL) as an internal standard. This suspension was vortexed for 1 min and centrifuged at 4,000 rpm for 10 min, after which 80 μL of the extract was aliquoted for LC-MS/MS analysis. LC-MS/MS analysis was conducted on a Shimadzu Nexera UHPLC system coupled with a Sciex 6500 TQ-S triple quadrupole mass spectrometer (MS/MS) operated at the positive mode (ESI+). […] The injection volume was 2 μL. The LC mobile phase A was 0.025% formic acid-water containing 1 mM ammonium acetate and B was 100% methanol containing 5 mM ammonium acetate. The gradient (% B) was 2% (0-0.4 min), 2-65% ([…]), 65-90% (0.7 to 1.3 min), 90% (1.3-1.9 min), 90-2% (1.9 to 1.91 min), 2% (1.91-2.5 min). The flow rate was 0.6 mL/min. The column temperature was 60° C."}, "[2]": {"test": "Tolerability (body weight, mouse loss) in NCI-H358 xenograft study (Example 1)", "conditions": "for Mouse loss and observations: n = 8 mice/group; for Mean body weight change: Day 29, n = 10", "quoted_text": "Dosing started ˜2 weeks post the subcutaneous implantation of the tumor cells. […] Tumor volume was measured twice a week. The body weight and tumor volume were captured in the StudyDirector software version 3.1.399.19 (StudyLog).\nData were analyzed using Microsoft Excel and GraphPad Prism 8.0. Day 0 was the day before treatment started.\nBWi and BW0 are the body weight of an individual mouse on measurement day I and on day 0, respectively."}, "[3]": {"test": "Tolerability / body weight in NCI-H2122 study (Example 2)", "description": "Body weights (BW) were also recorded twice weekly. […] Mean body weight changes (±SEM) were recorded for group.\nExperimental Endpoints. Animal health was monitored at least twice weekly through behavioral observations and weight checks. After tumor inoculation, the animals were checked daily for morbidity and mortality. During routine monitoring, the animals were checked for any effects of tumor growth and treatments on behavior such as mobility, food and water consumption, body weight gain/loss, eye/hair matting, and any other abnormalities.\nStudy endpoint was defined when animals reached one of the following criteria for euthanasia: ≥20% body weight loss at any time versus day 1, ≥15% body weight loss for 72 hours versus day 1, individual tumor volume of ≥3000 mm^3, or all mice in each group were euthanized when the mean tumor volume reached ≥2000 mm^3."}, "[4]": {"system": "NCI-H358 subcutaneous tumors (human NSCLC, KRAS G12C)", "test": "NCI-H358 subcutaneous xenograft efficacy study, formula (10b) and Compound A (Example 1)", "assay_type": "in vivo, NOD/SCID mice", "conditions": "for Day 21 TGI: n = 8", "source_text": "Cell lines. The NCI-H358 cell line was purchased from ATCC. It is a human NSCLC cell line, harboring heterozygous mutation of KRAS G12C.\nTest animals. Female NOD/SCID mice (Beijing Anikeeper Biotech Co., Ltd) were utilized in this experiment. Animals were 6˜8 weeks of age at the time of xenograft implantation. The protocol and any amendment(s) or procedures involving the care and use of animals in this study was reviewed and approved by the Institutional Animal Care and Use Committee (IACUC) of Crown Bioscience Ltd. prior to execution. During the study, the care and use of animals was conducted in accordance with the regulations of the Association for Assessment and Accreditation of Laboratory Animal Care (AAALAC).\nIn vivo modeling, treatment and data analysis.\nWhen the average tumor volume reached 250 mm^3, mice were randomized into groups of 8 based on both tumor volume and body weight.\nTumor volume was measured twice a week.\nDay 0 was the day before treatment started.\nTi and Ci are the mean tumor volumes of the treatment and vehicle groups on the measurement day, respectively; C0 is the mean tumor volume of the vehicle group on day 0.\nTumor volume was monitored bi-weekly by caliper and body weights were recorded. Data presented in FIGS. 1A-1E represent mean±SEM, and N=8 mice/group for FIGS. 1B-1E and N=10 mice/group for FIG. 1A."}, "[5]": {"system": "NCI-H358 subcutaneous cell line-derived tumors (NSCLC, KRAS G12C)", "test": "NCI-H358 subcutaneous cell line-derived xenograft, formula (10b) and sotorasib (Example 2)", "assay_type": "in vivo, NOD/SCID mice", "conditions": "Day 29, n = 10; for Mean Tumor REG: Formula (10b) 100 mg/kg QD PO", "source_text": "(§1) Tumor Cell Line Culture. […] Passage 9 NCI-H358 cells were thawed and expanded, and passage 13 cells were harvested for inoculations. […] Passage 6 NCI-H2122 cells were thawed and expanded, and passage 14 cells were harvested for inoculations.\n(§2) Animal Inoculations and Randomization. All experiments were reviewed and approved by the Crown Bioscience, Inc., Institutional Animal Care and Use Committee (IACUC) prior to execution and performed in accordance with the regulations of the Association for Assessment and Accreditation of Laboratory Animal Care (AAALAC). […] Mice were randomized into four groups (10 mice/group) by tumor volume (size mm^3) 13 days post cell inoculation when the mean tumor volume was 160 mm^3. […] Mice were randomized into four groups (10 mice/group) by tumor volume (size mm^3) 9 days post cell inoculation when the mean tumor volume was 180 mm^3.\n(§3) Tumor and Body Weight Measurements. […] Dosing as well as tumor and body weight measurements were conducted in a Laminar flow cabinet.\n(§4) Statistical analyses. Statistical analyses were performed with GraphPad Prism software (version 9). For statistical analyses comparing the vehicle group to all other groups, two-way repeated-measures analysis of variance (ANOVA) followed by post hoc Tukey's multiple comparisons test of the means was applied over the indicated number of days. For statistical analyses comparing the monotherapy and combination groups, two-way repeated-measures ANOVA was performed between each monotherapy group mean and combination group mean over the number of indicated days. A p value of less than 0.05 was considered statistically significant.\nFemale NOD/SCID mice were implanted subcutaneously with NSCLC NCI-H358 tumor cells. […] Mouse tumor volumes were measured twice weekly until day 34 and results are shown through day 29."}, "[6]": {"system": "NCI-H2122 subcutaneous cell line-derived tumors (NSCLC, KRAS G12C, KEAP1, STK11)", "test": "NCI-H2122 subcutaneous cell line-derived xenograft, formula (10b) and sotorasib (Example 2)", "assay_type": "in vivo, BALB/c nude mice", "conditions": "Day 21, n = 10; for TGI: Formula (10b) 100 mg/kg QD PO", "source_text": "as §1, §2, §3, §4"}},
  "note": "Entries after “also recorded” stand apart in the source; their conditions may differ.",
  "data": [
    {"smiles": "C=CC(=O)N1CCN(c2nc(=O)n(-c3c(C)ccnc3C(C)C)c3nc(-c4c(O)cccc4F)c(F)cc23)[C@@H](C)C1", "note": "[Compound A, 6-fluoro-7-(2-fluoro-6-hydroxyphenyl)-1-[4-methyl-2-(propan-2-yl)pyridin-3-yl]-4-[(2S)-2-methyl-4-(prop-2-enoyl)piperazin-1-yl]pyrido[2,3-d]pyrimidin-2(1H)-one, reference compound]", "values": [
      {"measurement": "Compound A Plasma concentration", "setting": "[1]; 2 hours after final dose of Compound A, Compound A 30 mg/kg QD, mean ± SD, N = 4, 30 mg/kg", "value": "2.02 ± 0.31", "unit": "µM"},
      {"measurement": "Compound A Plasma concentration", "setting": "[1]; 2 hours after final dose of Compound A, Compound A 100 mg/kg QD, mean ± SD, N = 4, 100 mg/kg", "value": "8.77 ± 7.25", "unit": "µM"},
      {"measurement": "Formula (10b) Plasma concentration", "setting": "[1]; Compound A 30 mg/kg QD alone, BQL = below quantitation limit (3 nM)", "value": "BQL"},
      {"measurement": "Formula (10b) Plasma concentration", "setting": "[1]; Compound A 100 mg/kg QD alone, BQL = below quantitation limit (3 nM)", "value": "BQL"},
      {"measurement": "concentration at 2 h", "setting": "[1]; 30 mg/kg, 2 hours after final dose of Compound A, Compound A 30 mg/kg QD, mean ± SD, N = 4", "value": 2, "unit": "µM"},
      {"measurement": "concentration at 2 h", "setting": "[1]; 100 mg/kg, 2 hours after final dose of Compound A, Compound A 100 mg/kg QD, mean ± SD, N = 4", "value": 8.8, "unit": "µM"},
      {"measurement": "Mouse loss and observations", "setting": "[2]; Compound A 30 mg/kg QD", "value": "None"},
      {"measurement": "Mouse loss and observations", "setting": "[2]; Compound A 100 mg/kg QD, dosing day of removal", "value": "None"},
      {"measurement": "Mean body weight change", "setting": "[2]; Compound A 10 mg/kg QD", "value": "−0.3", "unit": "%"}
    ]},
    {"smiles": "C=CC(=O)N1CCN(c2nc(=O)n(-c3c(C)ccnc3C(C)C)c3nc(-c4c(O)cccc4F)c(F)cc23)[C@@H](C)C1", "note": "[Sotorasib, reference compound]", "values": [
      {"measurement": "tolerability / impact on body weights", "setting": "[3]; sotorasib 100 mg/kg QD monotherapy, FIG. 3B", "value": "well tolerated"}
    ]},
    {"smiles": "Cc1c(N2CCC3(CC2)CO[C@@H](C)[C@H]3N)nc(C)n(-c2cccc(Cl)c2Cl)c1=O", "note": "(atropisomer, axis not shown; (Ra)) [Formula (10b), 6-((3S,4S)-4-amino-3-methyl-2-oxa-8-azaspiro[4.5]decan-8-yl)-3-(Ra)-(2,3-dichlorophenyl)-2,5-dimethylpyrimidin-4(3H)-one]", "values": [
      {"measurement": "Mean tumor regression", "setting": "[4]; Day 29, Formula (10b) 100 mg/kg QD PO, n = 10, FIG. 1A", "value": 14, "unit": "%"},
      {"measurement": "Number of regressions", "setting": "[4]; Day 29, Formula (10b) 100 mg/kg QD, n = 10", "value": "8/10"},
      {"measurement": "Day 21 TGI", "setting": "[4]; Formula (10b) 50 mg/kg QD PO", "value": 46, "unit": "%"},
      {"measurement": "Day 21 TGI", "setting": "[4]; Formula (10b) 50 mg/kg QD PO, listed as formula (10b)", "value": 46, "unit": "%"},
      {"measurement": "Day 21 TGI", "setting": "[4]; Formula (10b) 100 mg/kg QD PO", "value": 89, "unit": "%"},
      {"measurement": "Day 21 TGI", "setting": "[4]; Formula (10b) 100 mg/kg QD PO, listed as formula (10b)", "value": 89, "unit": "%"},
      {"measurement": "effect on growth of NCI-H358 tumors (in words)", "setting": "[4]; formula (10b) monotherapy at 100 mg/kg QD", "value": "approximately tumor stasis"},
      {"measurement": "Formula (10b) Plasma concentration", "setting": "[1]; 8 hours after final dose of formula (10b), Formula (10b) 50 mg/kg QD, mean ± SD, N = 4", "value": "4.44 ± 1.05", "unit": "µM"},
      {"measurement": "Formula (10b) Plasma concentration", "setting": "[1]; 8 hours after final dose of formula (10b), Formula (10b) 100 mg/kg QD, mean ± SD, N = 4", "value": "7.54 ± 1.60", "unit": "µM"},
      {"measurement": "Compound A Plasma concentration", "setting": "[1]; Formula (10b) 50 mg/kg QD alone, BQL = below quantitation limit (3 nM)", "value": "BQL"},
      {"measurement": "Compound A Plasma concentration", "setting": "[1]; Formula (10b) 100 mg/kg QD alone, BQL = below quantitation limit (3 nM)", "value": "BQL"},
      {"measurement": "concentration at 8 h", "setting": "[1]; 50 mg/kg, 8 hours after final dose of formula (10b), Formula (10b) 50 mg/kg QD, mean ± SD, N = 4", "value": 4.4, "unit": "µM"},
      {"measurement": "concentration at 8 h", "setting": "[1]; 100 mg/kg, 8 hours after final dose of formula (10b), Formula (10b) 100 mg/kg QD, mean ± SD, N = 4", "value": 7.5, "unit": "µM"},
      {"measurement": "Mean Tumor Volume (±SEM)", "setting": "[5]; Formula (10b) 100 mg/kg QD PO day 1-28", "value": "138 (±17) mm^3"},
      {"measurement": "Mean Tumor REG", "setting": "[5]", "value": 14, "unit": "%"},
      {"measurement": "Mean Tumor REG", "setting": "[5]; listed as formula (10b)", "value": 14, "unit": "%"},
      {"measurement": "Mean Tumor Volume (±SEM)", "setting": "[6]; Formula (10b) 100 mg/kg QD PO day 1-21", "value": "590 (±48) mm^3"},
      {"measurement": "TGI", "setting": "[6]", "value": 58, "unit": "%"},
      {"measurement": "TGI", "setting": "[6]; listed as formula (10b)", "value": 58, "unit": "%"},
      {"measurement": "body weight loss", "setting": "[3]; formula (10b) 100 mg/kg QD monotherapy, several mice, group placed on diet gel day 11-21", "value": "over 10%"},
      {"measurement": "Mean body weight change", "setting": "[2]; Formula (10b) 100 mg/kg QD", "value": "−6.5", "unit": "%"},
      {"measurement": "Mouse loss and observations", "setting": "[2]; Formula (10b) 50 mg/kg QD, each event = one mouse, BWL = body weight loss", "value": "Day 3 (BWL); also recorded: Day 12 (BWL); also recorded: Day 19 (BWL)"},
      {"measurement": "Mouse loss and observations", "setting": "[2]; Formula (10b) 100 mg/kg QD, each event = one mouse", "value": "Day 18 (Found dead); also recorded: Day 21 (Found dead)"}
    ]}
  ]
}
